In the NIST ThermoML archive (doi:10.1016/j.jct.2010.11.012):
Numbers after ± are expanded uncertainties.

Experiment: xn = mol fraction of the nth substance listed
Conditions: Liquid, Bellows volumetry

CCCC [butane] + O=C=O
mass density [kg/m3]
Conditions	x2 = 0.2322	x2 = 0.4794	x2 = 0.715
400 K, 100000 kPa	640.36 ± 3	695.05 ± 3.4	770.02 ± 4
400 K, 120000 kPa	657.01 ± 3.1	716.06 ± 3.5	797.97 ± 4.1
400 K, 140000 kPa	671.62 ± 3.1	734.23 ± 3.5	821.54 ± 4.1
400 K, 160000 kPa	684.45 ± 3.5	749.98 ± 4	841.99 ± 4.9
400 K, 180000 kPa	696.37 ± 3.4	764.27 ± 4	860.22 ± 4.8
400 K, 200000 kPa	706.63 ± 3.5	777.01 ± 4.6	876.67 ± 5
420 K, 30000 kPa	–	526.92 ± 2.7	–
420 K, 40000 kPa	–	566.28 ± 2.6	–
420 K, 50000 kPa	–	595.02 ± 2.2	–
420 K, 60000 kPa	–	617.32 ± 2.8	–
420 K, 70000 kPa	–	635.97 ± 2.5	–
420 K, 80000 kPa	–	652.07 ± 2.4	–
420 K, 90000 kPa	–	666.23 ± 2.2	–
420 K, 100000 kPa	–	678.91 ± 3.4	–
420 K, 120000 kPa	–	701.1 ± 3.4	–
420 K, 140000 kPa	–	719.99 ± 3.4	–
420 K, 160000 kPa	–	736.74 ± 4	–
420 K, 180000 kPa	–	751.63 ± 3.9	–
420 K, 200000 kPa	–	764.81 ± 4	–
440 K, 20000 kPa	450.53 ± 2.6	–	–
440 K, 30000 kPa	495.88 ± 2.4	497.45 ± 2.8	–
440 K, 40000 kPa	525.21 ± 1.9	541.84 ± 2.7	554.08 ± 3.3
440 K, 50000 kPa	547.37 ± 1.7	573.48 ± 2.2	601.28 ± 3.2
440 K, 60000 kPa	565.31 ± 2.2	597.98 ± 2.9	637.06 ± 4.3
440 K, 70000 kPa	580.32 ± 2	618.26 ± 2.6	665.83 ± 3.8
440 K, 80000 kPa	593.42 ± 1.9	635.67 ± 2.5	689.85 ± 3.4
440 K, 90000 kPa	605.1 ± 1.8	651.02 ± 2.3	710.59 ± 3.1
440 K, 100000 kPa	615.81 ± 3	664.29 ± 3.3	728.79 ± 4
440 K, 120000 kPa	634.32 ± 3	687.84 ± 3.4	759.95 ± 4
440 K, 140000 kPa	650.31 ± 3	707.66 ± 3.4	786.09 ± 4
440 K, 160000 kPa	664.25 ± 3.4	724.96 ± 4	808.63 ± 4.9
440 K, 180000 kPa	676.7 ± 3.4	740.16 ± 3.9	828.38 ± 4.8
440 K, 200000 kPa	688.15 ± 3.4	754.38 ± 4.9	846.42 ± 4.8
